# From ChEMBL document CHEMBL1201862, “PubChem BioAssay data set” (2004)
#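 Briefly, cells in 96-well plates were exposed to five compound concentrations for 48 h, and endpoints were estimated by linear interpolation. GI50 is the concentration that inhibits growth by half.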 Active and inactive are the calls of the source. No stated cut-off is given here; in the data, active = GI50 up to about 1.1 µM and inactive = higher.
# What was measured:
# Experiment in all cases: NCI tumour cell line growth inhibition, 48 h
# OVCAR-5 = system: OVCAR-5
# SR = system: SR
# NCI-H460 = system: NCI-H460
# U-251 = system: U-251
# UACC-257 = system: UACC-257
# MDA-MB-435 = system: MDA-MB-435
# Hs-578T = system: Hs-578T
# NCI-H226 = system: NCI-H226
# HOP-62 = system: HOP-62
# CAKI-1 = system: CAKI-1
# SK-MEL-2 = system: SK-MEL-2
# 786-0 = system: 786-0
# SN12C = system: SN12C
# SK-MEL-5 = system: SK-MEL-5
# HCT-15 = system: HCT-15
# Malme-3M = system: Malme-3M
# KM12 = system: KM12
# M14 = system: M14
# OVCAR-8 = system: OVCAR-8
# COLO 205 = system: COLO 205
SMILES,GI50 (OVCAR-5),GI50 (SR),GI50 (NCI-H460),GI50 (U-251),GI50 (UACC-257),GI50 (MDA-MB-435),GI50 (Hs-578T),GI50 (NCI-H226),GI50 (HOP-62),GI50 (CAKI-1),GI50 (SK-MEL-2),GI50 (786-0),GI50 (SN12C),GI50 (SK-MEL-5),GI50 (HCT-15) [µM],GI50 (Malme-3M),GI50 (KM12),GI50 (M14),GI50 (OVCAR-8),GI50 (COLO 205)
Nc1cccc(OCc2nc(N)nc(N)c2-c2ccc(Cl)cc2)c1,> 100 µM (inactive),36.7 µM (inactive),32.9 µM (inactive),64.9 µM (inactive),41.1 µM (inactive),56.4 µM (inactive),62.2 µM (inactive),12.4 µM (inactive),> 100 µM (inactive),46.7 µM (inactive),> 100 µM (inactive),53.5 µM (inactive),51.3 µM (inactive),26.9 µM (inactive),39.2,> 100 µM (inactive),57.3 µM (inactive),60.8 µM (inactive),43.9 µM (inactive),18.6 µM (inactive)
COc1ccc2oc(=N)c(C(=O)NCc3ccccc3)cc2c1,43.6 µM (inactive),54.8 µM (inactive),28.5 µM (inactive),16.9 µM (inactive),24.8 µM (inactive),14.5 µM (inactive),15.8 µM (inactive),22.7 µM (inactive),21.2 µM (inactive),34.6 µM (inactive),18.6 µM (inactive),27.9 µM (inactive),32.2 µM (inactive),27.9 µM (inactive),21.1,15.5 µM (inactive),13.3 µM (inactive),33.2 µM (inactive),16.7 µM (inactive),31.7 µM (inactive)
CCOC(=O)NC(Nc1ccc(F)cc1)(C(=O)OCC)C(F)(F)F (stereo not given),> 100 µM (inactive),> 100 µM (inactive),> 21.7 µM (inactive),> 100 µM (inactive),3.47 µM (inactive),0.268 µM (active),> 100 µM (inactive),> 100 µM (inactive),> 100 µM (inactive),> 100 µM (inactive),0.982 µM (active),> 100 µM (inactive),> 100 µM (inactive),0.192 µM (active),29.6,> 100 µM (inactive),0.556 µM (active),0.156 µM (active),7.06 µM (inactive),> 26 µM (inactive)
N#Cc1c(-c2ccccc2)c(/N=N/c2ccc(F)cc2)c(=O)n2c1[nH]c1ccccc12,5.94 µM (inactive),3.81 µM (inactive),2.31 µM (inactive),3.66 µM (inactive),3.21 µM (inactive),4.7 µM (inactive),4.43 µM (inactive),7.28 µM (inactive),6.15 µM (inactive),3.92 µM (inactive),18.2 µM (inactive),3.65 µM (inactive),1.84 µM (inactive),1.53 µM (inactive),3.33,7.6 µM (inactive),3.15 µM (inactive),3.54 µM (inactive),2.34 µM (inactive),3.43 µM (inactive)
NS(=O)(=O)c1ccc(NNC(=O)c2cccc3c(=O)c4ccccc4[nH]c23)cc1,> 100 µM (inactive),49.8 µM (inactive),87.7 µM (inactive),55.1 µM (inactive),> 100 µM (inactive),88.1 µM (inactive),72.8 µM (inactive),> 100 µM (inactive),> 100 µM (inactive),> 100 µM (inactive),> 100 µM (inactive),> 100 µM (inactive),> 100 µM (inactive),34 µM (inactive),62.8,78.3 µM (inactive),42.1 µM (inactive),> 100 µM (inactive),> 100 µM (inactive),> 100 µM (inactive)
COc1ccc(Nc2nc3cc(C(F)(F)F)ccc3nc2C(=O)O)cc1OC,58.9 µM (inactive),25.1 µM (inactive),37.6 µM (inactive),35.8 µM (inactive),29.6 µM (inactive),33.8 µM (inactive),52.2 µM (inactive),16.4 µM (inactive),35 µM (inactive),27 µM (inactive),11.1 µM (inactive),31 µM (inactive),21.5 µM (inactive),22.4 µM (inactive),35.6,42.9 µM (inactive),27.8 µM (inactive),37.4 µM (inactive),39.5 µM (inactive),27.9 µM (inactive)
CCC(O)CC1OC2(CCC1C)CC1OC(=O)/C=C\C(C)(O)C(O)C(C)C(O)C(OC3CC(OC)C(O)C(C)O3)C(O)C(C)(O)CCC/C=C/C3CC(C)COC3(O)CC(O2)C1C (stereo not given),6.18 µM (inactive),19.9 µM (inactive),6.62 µM (inactive),< 0.01 µM (active),< 0.01 µM (active),1.91 µM (inactive),12.1 µM (inactive),0.0904 µM (active),2.93 µM (inactive),1.24 µM (inactive),4.98 µM (inactive),20.2 µM (inactive),15.7 µM (inactive),< 0.01 µM (active),9.62,10.7 µM (inactive),2.43 µM (inactive),6.97 µM (inactive),< 0.0111 µM (active),0.237 µM (active)
COc1cc(-c2coc3c(OC)c(OC4OC(CO)C(O)C(O)C4O)c(OC)cc3c2=O)cc(OC)c1C (stereo not given),14.2 µM (inactive),4.35 µM (inactive),8.75 µM (inactive),3.7 µM (inactive),14.2 µM (inactive),3.85 µM (inactive),4.17 µM (inactive),25.7 µM (inactive),15.2 µM (inactive),14.7 µM (inactive),16.1 µM (inactive),1.28 µM (inactive),4.07 µM (inactive),12.1 µM (inactive),3.66,15.3 µM (inactive),4.79 µM (inactive),4.45 µM (inactive),3.38 µM (inactive),17.9 µM (inactive)
c1c[nH]c(C23C4C5C6C4C2C6C53)n1 (stereo not given),> 100 µM (inactive),> 100 µM (inactive),> 100 µM (inactive),> 100 µM (inactive),> 100 µM (inactive),> 100 µM (inactive),> 100 µM (inactive),> 100 µM (inactive),> 100 µM (inactive),> 100 µM (inactive),> 100 µM (inactive),> 100 µM (inactive),> 100 µM (inactive),> 100 µM (inactive),> 100,> 100 µM (inactive),> 100 µM (inactive),> 100 µM (inactive),> 100 µM (inactive),> 100 µM (inactive)
CC1CCc2c(c(CC3CC(=O)NC(=O)C3)nn2-c2ccccc2)C1 (stereo not given),> 100 µM (inactive),> 100 µM (inactive),99.1 µM (inactive),> 100 µM (inactive),> 100 µM (inactive),> 100 µM (inactive),> 100 µM (inactive),> 100 µM (inactive),> 100 µM (inactive),> 100 µM (inactive),> 100 µM (inactive),> 100 µM (inactive),> 100 µM (inactive),> 100 µM (inactive),> 100,> 100 µM (inactive),> 100 µM (inactive),> 100 µM (inactive),93.8 µM (inactive),> 100 µM (inactive)
C=CC(c1ccccc1)[C@@]1(OC(C)=O)C(=O)C(=O)OC1C1COC(C)(C)O1 (stereo not given in full),18.5 µM (inactive),2.43 µM (inactive),14.5 µM (inactive),14.3 µM (inactive),9.71 µM (inactive),13.9 µM (inactive),22.9 µM (inactive),17.2 µM (inactive),17.3 µM (inactive),4.72 µM (inactive),16.4 µM (inactive),10.4 µM (inactive),7.66 µM (inactive),15.9 µM (inactive),9.62,15.2 µM (inactive),15.2 µM (inactive),11.1 µM (inactive),13.1 µM (inactive),8.26 µM (inactive)
OC(c1nc2ccccc2[nH]1)C(O)C(O)C(O)c1nc2ccccc2[nH]1 (stereo not given),> 100 µM (inactive),> 100 µM (inactive),> 100 µM (inactive),> 100 µM (inactive),> 100 µM (inactive),> 100 µM (inactive),91.4 µM (inactive),> 100 µM (inactive),> 100 µM (inactive),> 100 µM (inactive),> 100 µM (inactive),> 100 µM (inactive),> 100 µM (inactive),> 100 µM (inactive),> 100,> 100 µM (inactive),> 100 µM (inactive),> 100 µM (inactive),> 100 µM (inactive),> 100 µM (inactive)
FC(F)(F)c1ccc2c(c1)nc(-c1ccc(Cl)cc1)n2CC1CCCN2CCCCC12 (stereo not given),6.41 µM (inactive),11.9 µM (inactive),16.6 µM (inactive),14.2 µM (inactive),14.9 µM (inactive),16.9 µM (inactive),14 µM (inactive),14.8 µM (inactive),13.9 µM (inactive),17.1 µM (inactive),15.9 µM (inactive),13.8 µM (inactive),12.9 µM (inactive),14 µM (inactive),14.4,15.3 µM (inactive),15.8 µM (inactive),14 µM (inactive),15.6 µM (inactive),11.6 µM (inactive)
CCOC(=O)CNC(=O)C(CSC(=O)N(O)c1ccc(Br)cc1)NC(=O)CCC(N)C(=O)OCC (stereo not given),> 50 µM (inactive),> 50 µM (inactive),> 50 µM (inactive),> 50 µM (inactive),> 50 µM (inactive),24.4 µM (inactive),> 50 µM (inactive),> 50 µM (inactive),> 50 µM (inactive),> 50 µM (inactive),> 50 µM (inactive),> 50 µM (inactive),> 50 µM (inactive),> 50 µM (inactive),> 50,> 50 µM (inactive),45.8 µM (inactive),> 50 µM (inactive),> 50 µM (inactive),> 50 µM (inactive)
